In patent publication US5807535A, “Metal complexes of hydroxyaryl containing aminocarboxylic acid chelating agents” (Australian Nuclear Science & Technology Organisation, priority 1992, dated 1998):

Tests used:
Type in all cases: physicochemical
[1] = Effect of pH on complexation of 99mTc with ligand (5)
Method: Radiolabelling with ^99m Tc was investigated over a range of pHs (3.0-10.0) (described in Table B). To ligand (5) (1.0 ml:1 mg/ml) dissolved in appropriate buffer was added an excess of stannous chloride (20 μl:2 mg/ml) in 0.1 N HCl. To this mixture is added an appropriate activity of ^99m TcO4 (20 μl) eluted from a technetium generator.
All reactions were carried out at room temperature.
Percent complexation was monitored by ITLC-SG using two solvent systems. […]

[2] = Effect of pH on radiolabelling ligand (5) with 64/67Cu
Method: Radiolabelling with ^64/67 Cu was investigated with ligand (5) over a range of pHs (see Table B). Conditions employed are similar to that reported above for where the ^64/67 Cu in appropriate buffer was added directly to a buffered solution of ligand (5). Rate and percent of complexation was monitored over time by ITLC-SG. Mobile phase employed was methanol:water:ammonia (9:1: trace amounts). The copper complex moves with the solvent front while the free copper is retained at the origin.

[3] = Complexation of (1) with 166Dy and 166Ho; details: 166Dy/166Ho, within 40 mins at RT
Method: Radiolabelling with of (1) with ^166 Dy and ^166 Ho and the serum stability of the complex formed has been investigated. A typical procedure involves dissolving (1) (2.6 10^-4 M) in 1.0 M NaOH (150 μl) and then adding saline (669 μl). Then equal volume of ligand mixture and the ^166 Dy/^166 Ho in 0.2 M NaAc (pH to 4.5) are mixed. The complexation is monitored by ITLC-SG.

Compound: Nc1ccc(O)c(NC(=O)CN(CCN(CC(=O)O)CC(=O)Nc2cc(N)ccc2O)CC(=O)O)c1 [Compound 5]
- complexation ([1]; 99mTc, pH 10.0): poor
- stability of product ([1]; 99mTc, pH 10.0): unstable
- stability of final product (stable for upto) ([1]; 99mTc, pH range 3.0-9.0): ≤ 2 h
- optimum pH of complexation ([1]; 99mTc, room temperature): 3.0-4.0 pH
- Percent 99mTc complexed ([1]; pH 3, 1 min): 89%
- Percent 99mTc complexed ([1]; pH 3, 3 min): 93%
- Percent 99mTc complexed ([1]; pH 3, 5 min): 90%
- Percent 99mTc complexed ([1]; pH 3, 10 min): 91%
- Percent 99mTc complexed ([1]; pH 3, 15 min): 90%
- Percent 99mTc complexed ([1]; pH 3, 30 min): 92%
- Percent 99mTc complexed ([1]; pH 3, 1 h): 92%
- Percent 99mTc complexed ([1]; pH 3, 2 h): 94%
- Percent 99mTc complexed ([1]; pH 4, 1 min): 94%
- Percent 99mTc complexed ([1]; pH 4, 3 min): 97%
- Percent 99mTc complexed ([1]; pH 4, 5 min): 92%
- Percent 99mTc complexed ([1]; pH 4, 10 min): 94%
- Percent 99mTc complexed ([1]; pH 4, 15 min): 96%
- Percent 99mTc complexed ([1]; pH 4, 30 min): 91%
- Percent 99mTc complexed ([1]; pH 4, 1 h): 100%
- Percent 99mTc complexed ([1]; pH 4, 2 h): 100%
- Percent 99mTc complexed ([1]; pH 5, 1 min): 84%
- Percent 99mTc complexed ([1]; pH 5, 3 min): 83%
- Percent 99mTc complexed ([1]; pH 5, 5 min): 91%
- Percent 99mTc complexed ([1]; pH 5, 10 min): 83%
- Percent 99mTc complexed ([1]; pH 5, 15 min): 81%
- Percent 99mTc complexed ([1]; pH 5, 30 min): 71%
- Percent 99mTc complexed ([1]; pH 5, 1 h): 85%
- Percent 99mTc complexed ([1]; pH 5, 2 h): 88%
- Percent 99mTc complexed ([1]; pH 6, 1 min): 80%
- Percent 99mTc complexed ([1]; pH 6, 3 min): 80%
- Percent 99mTc complexed ([1]; pH 6, 5 min): 83%
- Percent 99mTc complexed ([1]; pH 6, 10 min): 80%
- Percent 99mTc complexed ([1]; pH 6, 15 min): 82%
- Percent 99mTc complexed ([1]; pH 6, 30 min): 90%
- Percent 99mTc complexed ([1]; pH 6, 1 h): 85%
- Percent 99mTc complexed ([1]; pH 6, 2 h): 91%
- Percent 99mTc complexed ([1]; pH 7, 1 min): 73%
- Percent 99mTc complexed ([1]; pH 7, 3 min): 83%
- Percent 99mTc complexed ([1]; pH 7, 5 min): 81%
- Percent 99mTc complexed ([1]; pH 7, 10 min): 74%
- Percent 99mTc complexed ([1]; pH 7, 15 min): 87%
- Percent 99mTc complexed ([1]; pH 7, 30 min): 80%
- Percent 99mTc complexed ([1]; pH 7, 1 h): 83%
- Percent 99mTc complexed ([1]; pH 7, 2 h): 52%
- Percent 99mTc complexed ([1]; pH 8, 1 min): 76%
- Percent 99mTc complexed ([1]; pH 8, 3 min): 88%
- Percent 99mTc complexed ([1]; pH 8, 5 min): 81%
- Percent 99mTc complexed ([1]; pH 8, 10 min): 83%
- Percent 99mTc complexed ([1]; pH 8, 15 min): 87%
- Percent 99mTc complexed ([1]; pH 8, 30 min): 85%
- Percent 99mTc complexed ([1]; pH 8, 1 h): 77%
- Percent 99mTc complexed ([1]; pH 8, 2 h): 81%
- Percent 99mTc complexed ([1]; pH 9, 1 min): 90%
- Percent 99mTc complexed ([1]; pH 9, 3 min): 100%
- Percent 99mTc complexed ([1]; pH 9, 5 min): 94%
- Percent 99mTc complexed ([1]; pH 9, 10 min): 86%
- Percent 99mTc complexed ([1]; pH 9, 15 min): 100%
- Percent 99mTc complexed ([1]; pH 9, 30 min): 83%
- Percent 99mTc complexed ([1]; pH 9, 1 h): 85%
- Percent 99mTc complexed ([1]; pH 9, 2 h): 74%
- Percent 99mTc complexed ([1]; pH 10, 1 min): 15%
- Percent 99mTc complexed ([1]; pH 10, 3 min): 16%
- Percent 99mTc complexed ([1]; pH 10, 5 min): 11%
- Percent 99mTc complexed ([1]; pH 10, 10 min): 13%
- Percent 99mTc complexed ([1]; pH 10, 15 min): 9%
- Percent 99mTc complexed ([1]; pH 10, 1 h): 8%
- Percent 99mTc complexed ([1]; pH 10, 2 h): 8%
- rate of complexation ([2]; all pHs (pH 3.0-10.0)): complete within the first minute
- complexation maintained for upto ([2]; pH 3.0-10.0): ≤ 2 h

Compound: O=C(O)CN(CCN(CC(=O)O)CC(=O)Nc1ccccc1O)CC(=O)Nc1ccccc1O [Compound 1]
- complexation [3]: > 99%
